Like-named read-outs stand apart in the source and are kept apart here.
Legend:
[1] = system: Apomorphine-induced agitation in rats; test: Inhibition of apomorphine-induced agitation in rats in combination with Compound A and Compound B (FIGS. 4, 5); format: in vivo; details: Rattus norvegicus, sc
Description: Shown are individual scores (open and closed circles for PDE2-i at 0 and 10 mg/kg, respectively) and median scores (horizontal lines) for agitation per dose group. In FIG. 4: * p<0.05, ** p<0.01, *** p<0.001 (Bonferroni posttests 0 vs 10 mg/kg).
In FIG. 5: * p<0.05 (Dunnett's Multiple Comparison Test vs. 0 mg/kg)
Shown are individual scores (open and closed circles for PDE2-i at 0 and 10 mg/kg, respectively) and median scores (horizontal lines) for agitation per dose group. […] This is also reflected in the listed ED50 values.

[2] = system: d-Amphetamine-induced hyperlocomotion in rats; test: Inhibition of d-amphetamine-induced hyperlocomotion in rats in combination with Compound A and Compound B (FIGS. 9, 10); format: in vivo; details: Rattus norvegicus, sc
Description: Shown are individual values (open and closed circles for PDE2-i at 0 and 10 mg/kg, respectively) and median values (horizontal lines) for distance traveled per dose group. The dotted horizontal lines represent the criteria adopted for drug-induced effects (<5500 and <1100 cm). In FIG. 9: * p<0.05, ** p<0.01, *** p<0.001 (Bonferroni posttests 0 vs 10 mg/kg).
The dotted horizontal lines represent the critical levels for drug-induced effects (<5500 cm and <1100 cm).
Shown are individual values (open and closed circles for PDE2-i at 0 and 10 mg/kg, respectively) and median values (horizontal lines) for distance traveled per dose group. The dotted horizontal lines represent the criteria adopted for drug-induced effects (<5500 and <1100 cm). […] This is also reflected in the listed ED50 values.

[3] = molecular target: Rat recombinant PDE10A (rPDE10A2) (Rattus norvegicus (Rat), UniProt Q9QYJ6); test: In vitro assay PDE10A (SPA, 3H-cAMP); format: biochemical
[4] = system: Apomorphine-induced agitation in rats; test: Inhibition of apomorphine-induced agitation in rats (APO)
[5] = system: d-Amphetamine-induced hyperlocomotion in rats; test: d-Amphetamine-induced hyperlocomotion in rats: potentiation of the effect of MP-10; format: in vivo, rat; details: d-amphetamine (1.25 mg/kg, s.c.) + MP-10 (2.5 mg/kg, s.c.)
[6] = system: Apomorphine-induced agitation in rats; test: Inhibition of apomorphine-induced agitation in rats in combination with MP-10; format: in vivo, rat; details: SC, MP-10 (0.63 mg/kg) + apomorphine (1.0 mg/kg) i.v.
Description: Inhibition of Apomorphine-induced Agitation in Rats in combination with MP-10 but the animals were simultaneously challenged with MP-10 (0.63 mg/kg) in addition to apomorphine (1.0 mg/kg) via one injection (2 ml/kg, i.v.), at a fixed time interval (standard 1 h) after s.c. or p.o. dosing of test compound or solvent. Twelve times, every 5 min, the intensity of agitation was scored 0 to 3.

[7] = read-out: ED50 (95% confidence limits) for reducing agitation score to <5, PDE10-i s.c., -1 h, co-treatment with B-1a 0 mg/kg
[8] = read-out: ED50 (95% confidence limits) for reducing agitation score to <5, PDE10-i s.c., -1 h, co-treatment with B-1a 10 mg/kg s.c.
[9] = read-out: ED50 (95% confidence limits) for reducing agitation score to <10, PDE10-i s.c., -1 h, co-treatment with B-1a 0 mg/kg
[10] = read-out: ED50 (95% confidence limits) for reducing agitation score to <10, PDE10-i s.c., -1 h, co-treatment with B-1a 10 mg/kg s.c.
[11] = read-out: ED50 (95% confidence limits) for reducing agitation score to <21, PDE10-i s.c., -1 h, co-treatment with B-1a 0 mg/kg
[12] = read-out: ED50 (95% confidence limits) for reducing agitation score to <21, PDE10-i s.c., -1 h, co-treatment with B-1a 10 mg/kg s.c.
[13] = read-out: ED50 (95% confidence limits) for reducing distance traveled to <1100 cm, PDE10-i s.c., -1 h, co-treatment with B-1a 0 mg/kg
[14] = read-out: ED50 (95% confidence limits) for reducing distance traveled to <1100 cm, PDE10-i s.c., -1 h, co-treatment with B-1a 10 mg/kg s.c.
[15] = read-out: ED50 (95% confidence limits) for reducing distance traveled to <5500 cm, PDE10-i s.c., -1 h, co-treatment with B-1a 0 mg/kg
[16] = read-out: ED50 (95% confidence limits) for reducing distance traveled to <5500 cm, PDE10-i s.c., -1 h, co-treatment with B-1a 10 mg/kg s.c.
[17] = SC, lowest dose at which >=67% tested animals respond

Rat recombinant PDE10A (rPDE10A2), sequence (Q9QYJ6 whole entry): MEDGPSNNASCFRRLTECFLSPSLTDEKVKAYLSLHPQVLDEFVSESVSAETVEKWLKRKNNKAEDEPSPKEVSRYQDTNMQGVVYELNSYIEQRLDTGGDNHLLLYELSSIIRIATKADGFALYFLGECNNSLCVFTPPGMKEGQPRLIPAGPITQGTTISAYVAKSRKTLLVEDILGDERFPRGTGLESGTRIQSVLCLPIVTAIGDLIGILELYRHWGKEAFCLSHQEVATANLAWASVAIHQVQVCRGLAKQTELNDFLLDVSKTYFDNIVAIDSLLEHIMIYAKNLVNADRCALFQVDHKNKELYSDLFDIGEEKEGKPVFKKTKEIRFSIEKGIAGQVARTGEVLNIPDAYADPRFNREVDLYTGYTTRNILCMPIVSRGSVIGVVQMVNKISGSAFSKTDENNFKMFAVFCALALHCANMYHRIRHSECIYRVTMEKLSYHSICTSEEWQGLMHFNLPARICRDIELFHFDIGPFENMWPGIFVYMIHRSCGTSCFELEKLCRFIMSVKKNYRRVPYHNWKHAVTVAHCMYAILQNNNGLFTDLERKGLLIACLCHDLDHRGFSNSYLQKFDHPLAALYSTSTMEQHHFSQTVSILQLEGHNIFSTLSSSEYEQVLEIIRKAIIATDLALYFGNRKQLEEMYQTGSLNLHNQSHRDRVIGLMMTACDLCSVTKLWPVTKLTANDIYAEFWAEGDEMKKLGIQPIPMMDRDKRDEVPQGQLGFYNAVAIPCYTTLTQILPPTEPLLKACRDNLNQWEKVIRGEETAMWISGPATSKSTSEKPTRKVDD

Compound: COCCc1ccc(-c2c(C)nc3c(N4CCOCC4)ccnn23)cn1 [Compound A]
- ED50 [1, 7]: ≥ 40 mg/kg
- ED50 [1, 8]: 12.4 mg/kg
- ED50 [1, 9]: 16.3 mg/kg
- ED50 [1, 10]: 6.2 mg/kg
- ED50 [1, 11]: 2.71 mg/kg
- ED50 [1, 12]: 3.1 mg/kg
- ED50 [2, 13]: > 40 mg/kg
- ED50 [2, 14]: 6.2 mg/kg
- ED50 [2, 15]: 0.89 mg/kg
- ED50 [2, 16]: 0.67 mg/kg

Compound: CCCOc1cncc(-c2nnc3c(C)nc4ccc(CN5CCOCC5)cc4n23)c1 [Compound B-16]
- PIC50 PDE10 ([3]; -log IC50 expressed in mol/L): 5.21

Compound: CCNCc1ccc2nc(C)c3nnc(-c4cc(OC(C)C)ccc4Cl)n3c2c1 [Compound B-19]
- PIC50 PDE10 [3]: 5.07

Compound: CCNCc1ccc2nc(C)c3nnc(-c4ccccc4Cl)n3c2c1 [Compound B-4, N-{[1-(2-Chlorophenyl)-4-methyl[1,2,4]triazolo[4,3-a]quinoxalin-8-yl]methyl}-ethanamine]
- PIC50 PDE10 ([3]; -log IC50 expressed in mol/L): 6.8
- Dose at max effect ([4]; SC): 10
- Max effect (lowest median cumulative agitation score) ([4]; SC, at the dose at max effect): 21
- LAD (lowest active dose) [4, 17]: >10

Compound: CCCCOc1ccc(Cl)c(-c2nnc3c(C)nc4ccc(CNC)cc4n23)c1 [Compound B-25]
- PIC50 PDE10 [3]: 5.04
- Distance Total <2500 cm Effect ([5]; SC, Time -60, dose 10): 3921 cm

Compound: CCCCOc1ccc(Cl)c(-c2nnc3c(C)nc4ccc(CNC(C)C)cc4n23)c1 [Compound B-20]
- PIC50 PDE10 [3]: 5.38

Compound: Cc1nc2c(N3CCOCC3)nccn2c1-c1ccc(C2CCOCC2)nc1 [Compound B]
- ED50 [1, 7]: ≥ 40 mg/kg
- ED50 [1, 8]: 10.8 mg/kg
- ED50 [1, 9]: 32 mg/kg
- ED50 [1, 10]: 6.2 mg/kg
- ED50 [1, 11]: 2.71 mg/kg
- ED50 [1, 12]: 2.36 mg/kg
- ED50 [2, 13]: > 40 mg/kg
- ED50 [2, 14]: 16.3 mg/kg
- ED50 [2, 15]: 3.1 mg/kg
- ED50 [2, 16]: 2.04 mg/kg

Compound: Cc1nc2ccc(CN(C)C)cc2n2c(-c3ccccc3Cl)nnc12 [Compound B-13]
- PIC50 PDE10 ([3]; -log IC50 expressed in mol/L): 6.97
- Dose at max effect ([4]; SC): 10
- Max effect (lowest median cumulative agitation score) ([4]; SC, at the dose at max effect): 20.5
- LAD (lowest active dose) ([4]; rat, in vivo): >10

Compound: CCNCc1ccc2nc(C)c3nnc(-c4cc(OCC)ccc4Cl)n3c2c1 [Compound B-22a]
- PIC50 PDE10 [3]: 6.04

Compound: Cc1nc2ccc(CNC(C)C)cc2n2c(-c3cncc(OCC4CC4)c3)nnc12 [Compound B-31]
- PIC50 PDE10 [3]: 5.84

Compound: Cc1nc2ccc(CN3CCOCC3)cc2n2c(-c3cc(OC(C)C)ccc3Cl)nnc12 [Compound B-6]
- PIC50 PDE10 ([3]; -log IC50 expressed in mol/L): 5.73
- Inh. of agitation < 10 Effect (cumulative agitation score) ([6]; Time 60, dose 2.5): 13
- Inh. of agitation < 10 Effect (cumulative agitation score) ([6]; Time 60, dose 10): 1
- Distance Total <2500 cm Effect ([5]; PO, Time -60, dose 10): 5033 cm
- Distance Total <2500 cm Effect ([5]; SC, Time -60, dose 0.63): 3096 cm
- Distance Total <2500 cm Effect ([5]; SC, Time -60, dose 2.5): 1206 cm
- Distance Total <2500 cm Effect ([5]; SC, Time -60, dose 10): 743.7 cm

Compound: Cc1nc2ccc(CN3CCOCC3)cc2n2c(-c3c(F)cccc3Cl)nnc12 [Compound B-5, 1-(2-Chloro-6-fluorophenyl)-4-methyl-8-(morpholin-4-ylmethyl) [1,2,4]triazolo[4,3-a]quinoxaline]
- Dose at max effect ([4]; SC): 40
- Max effect (lowest median cumulative agitation score) ([4]; SC, at the dose at max effect): 1
- LAD (lowest active dose) [4, 17]: 0.63

Compound: CCOc1ccc(Cl)c(-c2nnc3c(C)nc4ccc(CN5CCOCC5)cc4n23)c1 [Compound B-7]
- PIC50 PDE10 ([3]; -log IC50 expressed in mol/L): 6.58
- Dose at max effect ([4]; SC): 10
- Max effect (lowest median cumulative agitation score) ([4]; SC, at the dose at max effect): 24
- LAD (lowest active dose) [4, 17]: >10

Compound: CCCCOc1cc(-c2nnc3c(C)nc4ccc(CN5CCOCC5)cc4n23)cnc1Cl [Compound B-29]
- PIC50 PDE10 ([3]; -log IC50 expressed in mol/L): <5

Compound: Cc1nc2ccc(CN3CCOCC3)cc2n2c(-c3cncc(OCC4CC4)c3)nnc12 [Compound B-26]
- PIC50 PDE10 ([3]; -log IC50 expressed in mol/L): 5.44
- Inh. of agitation < 10 Effect (cumulative agitation score) ([6]; Time 60, dose 10): 17
- Distance Total <2500 cm Effect ([5]; SC, Time -60, dose 2.5): 3061 cm
- Distance Total <2500 cm Effect ([5]; SC, Time -60, dose 10): 1653 cm

Compound: CCCOc1ccc(Cl)c(-c2nnc3c(C)nc4ccc(CNCC)cc4n23)c1 [Compound B-14]
- PIC50 PDE10 [3]: 5.75

Compound: Cc1nc2ccc(CN3CCOCC3)cc2n2c(-c3cc(F)ccc3Cl)nnc12 [Compound B-9]
- PIC50 PDE10 ([3]; -log IC50 expressed in mol/L): 7.07
- Dose at max effect ([4]; SC): 10
- Max effect (lowest median cumulative agitation score) ([4]; SC, at the dose at max effect): 9
- LAD (lowest active dose) ([4]; rat, in vivo): 2.5

Compound: CCCCOc1ccc(Cl)c(-c2nnc3c(C)nc4ccc(CN5CCOCC5)cc4n23)c1.Cl [Compound B-2, 1-(5-Butoxy-2-chlorophenyl)-4-methyl-8-(morpholin-4-ylmethyl) [1,2,4]triazolo-[4,3-a]quinoxaline hydrochloride]
- PIC50 PDE10 ([3]; -log IC50 expressed in mol/L): 5.79

Compound: Cc1nc2ccc(CN(C)C)cc2n2c(-c3cc(OC(C)C)ccc3Cl)nnc12 [Compound B-17]
- PIC50 PDE10 [3]: 5.8
- Inh. of agitation < 10 Effect (cumulative agitation score) ([6]; Time 60, dose 10): 12
- Distance Total <2500 cm Effect ([5]; SC, Time -60, dose 2.5): 4133 cm
- Distance Total <2500 cm Effect ([5]; SC, Time -60, dose 10): 1721 cm

Compound: CCCCOc1cncc(-c2nnc3c(C)nc4ccc(CNC(C)C)cc4n23)c1 [Compound B-23]
- PIC50 PDE10 [3]: <5

Compound: CCCOc1cncc(-c2nnc3c(C)nc4ccc(CNCC)cc4n23)c1 [Compound B-24]
- PIC50 PDE10 [3]: <5

Compound: CCCOc1ccc(Cl)c(-c2nnc3c(C)nc4ccc(CN(C)C)cc4n23)c1 [Compound B-15]
- PIC50 PDE10 [3]: 5.83

Compound: CCOc1ccc(Cl)c(-c2nnc3c(C)nc4ccc(CN(C)C)cc4n23)c1 [Compound B-18]
- PIC50 PDE10 [3]: 6.5
- Inh. of agitation < 10 Effect (cumulative agitation score) ([6]; Time 60, dose 10): 17
- Distance Total <2500 cm Effect ([5]; SC, Time -60, dose 10): 3369 cm
- Dose at max effect ([4]; SC): 10
- Max effect (lowest median cumulative agitation score) ([4]; SC, at the dose at max effect): 22
- LAD (lowest active dose) ([4]; rat, in vivo): >10

Compound: CCCCOc1cncc(-c2nnc3c(C)nc4ccc(CNCC)cc4n23)c1 [Compound B-21]
- PIC50 PDE10 [3]: <5

Compound: CCCOc1ccc(Cl)c(-c2nnc3c(C)nc4ccc(CN5CCOCC5)cc4n23)c1 [Compound B-8]
- PIC50 PDE10 ([3]; -log IC50 expressed in mol/L): 6.49
- Dose at max effect ([4]; SC): 10
- Max effect (lowest median cumulative agitation score) ([4]; SC, at the dose at max effect): 23
- LAD (lowest active dose) [4, 17]: >10

Compound: Cc1nc2ccc(CN(C)C)cc2n2c(-c3cncc(OCC4CC4)c3)nnc12 [Compound B-30]
- PIC50 PDE10 [3]: <5

Compound: COc1ccc(Cl)c(-c2nnc3c(C)nc4ccc(CN5CCOCC5)cc4n23)c1 [Compound B-10]
- PIC50 PDE10 ([3]; -log IC50 expressed in mol/L): 6.98
- Dose at Max Effect ([4]; PO): 10
- Max effect (lowest median cumulative agitation score) ([4]; PO, at the dose of column Dose at Max Effect): 21
- LAD (lowest active dose) ([4]; rat, in vivo): >10

Compound: CCNCc1ccc2nc(C)c3nnc(-c4cncc(OCC5CC5)c4)n3c2c1 [Compound B-32]
- PIC50 PDE10 [3]: <5

Compound: CCCCOc1cncc(-c2nnc3c(C)nc4ccc(CNC)cc4n23)c1 [Compound B-28]
- PIC50 PDE10 [3]: <5

Compound: COc1cncc(-c2nnc3c(C)nc4ccc(CN5CCOCC5)cc4n23)c1 [Compound B-12]
- PIC50 PDE10 ([3]; -log IC50 expressed in mol/L): 6.57
- Dose at max effect ([4]; SC): 10
- Max effect (lowest median cumulative agitation score) ([4]; SC, at the dose at max effect): 21
- LAD (lowest active dose) [4, 17]: >10
